Patent publication US20170049884A1, “USE OF ANTI-CCR5 ANTIBODIES IN GRAFT VERSUS HOST DISEASE” (CytoDyn Inc., priority 2014, published 2017)
Where two headings read alike, the source gives them in different places.

What was measured:
[1] = test system: reporter viruses pseudotyped with HIV-1JR-FL envelope; assay type: cell-based; conditions: HIV-1 Envelope JRFL; named 1st inhibitor with 2nd inhibitor PRO 140
Description: (§1) A self-inactivating (SIN) vector was derived from the pNL4-3ΔEnv-luciferase vector (Dragic et al. 1996) by deleting 507 basepairs in the U3 region of the 3′ long terminal repeat (LTR) so as to remove the TATA, box and transcription factor binding sites. The human cytomegalovirus promoter was inserted upstream of the luciferase (luc) gene to enable expression of luciferase following integration.
(§2) SF162 envelopes were generated by cotransfection of 293T cells with the SIN vector and the appropriate pcDNA env-expressing vector as previously described (Dragic et al, 1996). […] Cultures were incubated for 72 h at 37°C. in DMEM containing 10% fetal bovine serum, […], 0.3 mg/mL geneticin, antibiotics, and 0.5% DMSO. Luciferase activity (relative light units or RLU) was measured using BrightGlo reagent (Promega, Madison, Wis.) according to the manufacturer's instructions. Percent inhibition was calculated as: (1-RLU in the presence of inhibitor/RLU in the absence of inhibitor)×100.
(§3) Experimental design and data analysis were based on the combination index (CI) method (Chou et al. 1991; Chou et al. 1984). Compounds were tested individually and in combination at a fixed molar ratio over a range of serial dilutions. […] The mutually exclusive CI formula was used for combinations of CCR5 inhibitors, while the mutually non-exclusive formula was utilized for combinations of inhibitors to distinct targets (Chou et al. 1991). Each test was conducted 4-12 times. Synergy, additivity and antagonism are indicated by CI<1, CI=1 and CI>1, respectively.
(§4) In the Bonferroni correction, P=.alpha,/h, where n is the number of comparisons. Twenty-two synergy comparisons (11 compounds×2 CI values) were made based on data generated in the membrane fusion assay, resulting in a corrected P value of0.0023.

[2] = test system: reporter viruses pseudotyped with HIV-1SF162 envelope; assay type: cell-based; conditions: HIV-1 Envelope SF162; named 1st inhibitor with 2nd inhibitor PRO 140
Description: as §1, §2, §3, §4

CCR5 [3] = biological target: T1, CCR5 (Homo sapiens, UniProt P51681); test: Competition binding: inhibition of 3H-UK-427,857 binding to CEM.NKR-CCR5 cells; parameters: host or cells: CEM.NKR-CCR5 (transduced human T cell leukemia line)
T1 sequence (P51681 whole entry): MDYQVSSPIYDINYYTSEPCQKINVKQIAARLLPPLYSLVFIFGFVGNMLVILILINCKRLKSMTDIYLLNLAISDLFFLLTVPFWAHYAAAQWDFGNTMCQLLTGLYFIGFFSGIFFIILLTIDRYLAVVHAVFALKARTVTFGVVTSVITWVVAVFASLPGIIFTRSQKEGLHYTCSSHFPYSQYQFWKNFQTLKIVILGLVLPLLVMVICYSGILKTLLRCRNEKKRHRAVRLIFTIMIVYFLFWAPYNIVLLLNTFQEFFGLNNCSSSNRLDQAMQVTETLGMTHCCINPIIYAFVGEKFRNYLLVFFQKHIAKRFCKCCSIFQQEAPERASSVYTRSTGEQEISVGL
Description: The cells were washed in PBSA and lysed with 0.5N HCl prior to scintillation counting using a Wallac1410 instrument.

CCR5 [4] = biological target: T1, CCR5; test: Competition binding: inhibition of PRO 140-PE binding to CEM.NKR-CCR5 cells; parameters: host or cells: CEM.NKR-CCR5 (transduced human T cell leukemia line); conditions: for inhibition of PRO 140-PE binding to CEM.NKR-CCR5 cells: in words
Procedure: Azide was added to block CCR5 internalization during the assay.

[5] = test system: HIV-1JR-FL envelope-mediated membrane fusion; assay type: cell-based
Description: HIV-1 envelope-mediated membrane fusion was examined using a fluorescence resonance energy transfer (RET) assay (Litwin et al. 1996) with modifications. Briefly, HeLa cells that stably express HIV-1JR-FL gp120/gp41 (Litwin et al. 1996) and CEM.NKR-CCR5 cells (NTH AIDS Research and Reference Reagent Program, (Spenlehauer et al. 2001; Trkola et al. 1999)) were labeled separately overnight with fluorescein octadecyl ester (F18; Molecular Probes, Eugene, Oreg.) and rhodamine octadecyl ester (R18; Molecular Probes), respectively. Cells were washed in phosphate-buffered saline containing 15% feral bovine serum (PBSF) and co-seeded at 15,000 cells/well into a 384-well plate. Inhibitors were added, and the plates were incubated in PBSF plus 0.5% dimethlysulfoxide (DMSO) for 4h at 37°C. prior to measurement of RET using a Victor^2 plate reader (Perkin-Elmer, Boston, Mass.) as previously described (Litwin et al. 1996). The CD4 mAb Leu3a was used as a control inhibitor, and percent inhibition was calculated as: (RET in the absence of inhibitor—RET in the presence of inhibitor)/(RET in the absence of inhibitor—RET in the presence of Leu3a)×100.
as §3, §4

[6] = in vivo; cited from earlier work
[7] = single administration of TAK-652 solution; cited from earlier work
[8] = test system: HIV-1 Env-mediated fusion of HeLa-EnvJRFL and CEM NKR-CCR5 cells; test: HIV-1 RET cell-cell fusion assay (Part II, Example 1); assay type: cell-based; conditions: PRO 140 in combination with the named compound; for Mean CF: 1:1 molar ratio, Combination Index at IC50 value
Procedure: and then diluted in DMSO to 200× the final, concentration to be utilized in the antiviral assay. Serial dilutions of small molecules were conducted in DMSO. Subsequent dilutions were conducted in medium to achieve a final DMSO concentration in the assay of 0.5%. Peptides and mAbs were diluted in PBS in the absence of DMSO.
HeLa cells were engineered to express HIV-1 gp120/gp41 from the macrophage-tropic primary isolate JRFL as described (HeLa-EnvJRFL: Litwin et al., 1996). Briefly, the HIV-1LA1 Env gene was excised from the plasmid pMA243 (Dragic et al., 1992) and the HIV-1JRFL Env gene was inserted. The HIV-1.sub JRFL Env gene was amplified from the plasmid pUCFL112-1 (Koyanagi et al., 1987). The resulting plasmid, designated JR-FL-pMA243, was sequenced by standard methods and transfected into HeLa cells using lipofectin (Gibco BRL/Invitrogen, Carlsbad, Calif.). HeLa-Env.sub JRFL transfectants were selected in methotrexate (Sigma, St. Louis, Mo.) and cloned twice by limiting dilution. The transduced human T cell leukemia line CEM NKR-CCR5 cells were obtained from the NIH AIDS Research and Reference Program (Cat. No. 458).
The HIV-1 RET assay has been described in detail previously (Litwin et al., 1996). Briefly, fluorescein octadecyl ester (F18; Molecular Probes, Eugene, Oreg.; 5 mg/ml in ethanol), was diluted 1:800 in DMEM labeling medium (DMEM; Invitrogen, Carlsbad, Calif.) with 10% fetal bovine serum (FBS; HyClone, Logan, Utah) and adjusted to an A506 of 0.34.+−0.10%. Octadecyl rhodamine B chloride (R18; Molecular Probes; 10 mg/ml in ethanol) was diluted 1:2050 in labeling medium and adjusted to an A565 of 0.52.+−0.10%. Both dyes were further diluted 2-fold by addition to cells in T75-cm^2 flasks. HeLa-EnvJRFL and CEM NKR-CCR5 cells were incubated overnight in F18- and R18-containing culture medium, respectively. The following day, medium from HeLa-EnvJRFL, cells was removed and 10 ml of 0.5 mM EDTA was added and incubated at 37°C. for 5 min. […] The centrifugation/wash step was repeated twice, after which the cells were counted and concentrations adjusted to 1.5×10^6 cells/ml. […] The plates were then read on a fluorescence plate reader (Victor^2, Perkin Elmer, Boston, Mass.) using the excitation/emission filter combinations shown in Table 5.
The “% Inhibition” was calculated according to the following formula: […]
Fifty percent inhibition (IC50) values were determined by fitting the inhibition data with a non-linear, four-parameter, variable slope equation (GraphPad Prism 4.02; GraphPad Software, San Diego, Calif.). […]
Cooperative inhibition effects of drug combinations were determined by the method of Chou and Talalay (1984). […] Combination Index (CI) and Dose Reduction (DR) values were calculated according to the following formulas: […]

CCR5 [9] = biological target: T1, CCR5; test: RANTES-induced calcium mobilization in L1.2-CCR5 cells; assay type: cell-based; conditions: FIG. 4
Description: Similar results were obtained for MIP-1.alpha, and MIP-1β

HIV-1 = conditions: repeated administration; cited from earlier work
CCR5 lymphocytes = assay type: in vivo, human; conditions: 2 mg/kg
Procedure: Individuals were treated in sequential, dose-rising cohorts of 5 subjects (4 active and 1 placebo) each and evaluated for up to 120 days post-treatment. […] Safety assessments consisted of monitoring the following: vital signs (blood pressure, pulse, temperature, etc; hematology (hemoglobin, hematocrit, leukocytes, platelets, etc.); serum chemistries (AST/ALT, alkaline phosphatase, BUN, creatinine, etc.); urinalysis (pH, specific gravity, protein, glucose, leukocytes, etc.); and ECGs (12-lead).
Whole blood specimens were combined separately with the indicated phycoerythrin-labeled anti-CCR5 antibodies or with appropriate isotype-control antibodies. Erythocytes were lysed and leukocytes were stabilized using the ImmunoPrep Reagent System (Beckman Coulter), and the cells were analyzed on a TQ Prep™ flow cytometry workstation (Beckman Coulter). Data were expressed as the percent of CCR5 cells relative to all cells gated in the analysis.
For up to 60 days post-treatment, at the times indicated in FIG. 6, blood was collected and analyzed for CCR5 lymphocyte levels.

[10] = named 1st inhibitor with 2nd inhibitor PRO 140, equimolar
[11] = named 1st inhibitor with 2nd inhibitor UK-427,857, equimolar

Molecule: Cc1ccnc2c1NC(=O)c1cccnc1N2C1CC1 [nevirapine]
- CI190 [1]: 0.73 ± 0.28
- CI190 [2]: 0.63 ± 0.19

Molecule: COC[C@@H](c1ccc(C(F)(F)F)cc1)N1CCN(C2(C)CCN(C(=O)c3c(C)ncnc3C)CC2)C[C@@H]1C [SCH-D]
- inhibition of 3H-UK-427,857 binding (CCR5 [3]): blocked ^3H-UK-427,857 binding to background levels
- impact on percent of cells gated for positive binding of PRO 140-PE (CCR5 [4]): little impact
- inhibition of PRO 140-PE binding to CEM.NKR-CCR5 cells (CCR5 [4]): modest levels of inhibition
- CI190 [1]: 0.18 ± 0.04
- CI190 [2]: 0.28 ± 0.11
- C190 [5, 10]: 0.36 ± 0.06
- C190 [5, 11]: 0.75 ± 0.02

Molecule: COc1ccnc2[nH]cc(C(=O)C(=O)N3CCN(C(=O)c4ccccc4)C[C@H]3C)c12 [BMS-378806, (R)-N-(benzoyl)-3-methyl-N′-[(4-methoxy-7-azaindol-3-yl)-oxoacetyl]-piperazine]
- CI190 [1]: 0.74 ± 0.23
- CI190 [2]: 0.82 ± 0.21
- C190 [5, 10]: 1.1 ± 0.22
- CI50 [5, 10]: 1.3 ± 0.19

Molecule: Cc1ccc(-c2ccc3c(c2)C=C(C(=O)Nc2ccc(C[N+](C)(C)C4CCOCC4)cc2)CCC3)cc1.[Cl-] [TAK-779]
- local tolerability [6]: local injection site irritation

Molecule: CCCCOCCOc1ccc(-c2ccc3c(c2)/C=C(/C(=O)Nc2ccc([S+]([O-])Cc4cncn4CCC)cc2)CCCN3CC(C)C)cc1 (centres unmarked) [TAK-652]
- safety and tolerability [7]: safe and well tolerated

Molecule: Cc1nnc(C(C)C)n1C1CC2CCC(C1)N2CC[C@H](NC(=O)C1CCC(F)(F)CC1)c1ccccc1 (some centres unmarked) [UK-427,857]
- Mean CF [8]: 0.59 ± 0.04
- C190 [5, 10]: 0.40 ± 0.06
- CI50 [5, 10]: 0.61 ± 0.5

Molecule: Cc1cn([C@H]2C[C@H](N=[N+]=[N-])[C@@H](CO)O2)c(=O)[nH]c1=O [zidovudine]
- CI190 [1]: 0.85 ± 0.26
- CI190 [2]: 1.0 ± 0.38

B1: RANTES: CC-chemokine that serves as a natural ligand for CCR5; purchased from R&D Systems (protein, UniProt P13501 24-91, looked up)
C-C motif chemokine 5: SPYSSDTTPCCFAYIARPLPRAHIKEYFYTSGKCSNPAVVFVTRKNRQVCANPEKKWVREYINSLEMS
- Mean CF [8]: 0.59 ± 0.08
- Mean Dose Reduction (Cpd in combination) ([8]; molar ratio 1:5): 1.75 ± 0.28
- Mean Dose Reduction (Cpd in combination) ([8]; molar ratio 5:1): 5.39 ± 1.13
- C190 [5, 10]: 0.43 ± 0.05
- C190 [5, 11]: 0.18 ± 0.01

B2: PRO 140: humanized IgG4,kappa anti-CCR5 mAb; humanized version of the murine mAb PA14 (antibody, chains of the INN, looked up, V domains shown)
VH: EVQLVESGGGLVKPGGSLRLSCAASGYTFSNYWIGWVRQAPGKGLEWIGDIYPGGNYIRNNEKFKDKTTLSADTSKNTAYLQMNSLKTEDTAVYYCGSSFGSNYVFAWFTYWGQGTLVTVSS
VL: DIVMTQSPLSLPVTPGEPASISCRSSQRLLSSYGHTYLHWYLQKPGQSPQLLIYEVSNRFSGVPDRFSGSGSGTDFTLKISRVEAEDVGVYYCSQSTHVPLTFGQGTKVEIK
- inhibition of 3H-UK-427,857 binding (CCR5 [3]; in words): blocked ^3H-UK-427,857 binding to background levels
- inhibition of PRO 140-PE binding to CEM.NKR-CCR5 cells (CCR5 [4]): Complete inhibition
- inhibition of RANTES-induced calcium mobilization vs HIV-1JR-FL replication (CCR5 [9]): blocks HIV-1 but not chemokine signaling
- control of HIV-1 replication (HIV-1): prolonged control of HIV-1 replication without viral escape
- binding of antibody 2D7 to CCR5 lymphocytes (CCR5 lymphocytes): significantly decreased
- CI190 [1]: 0.90 ± 0.15
- CI190 [2]: 0.86 ± 0.33
